Like-named read-outs stand apart in the source and are kept apart here.
Key:
[1] = target: T1, Csx1-Crn2; test: EMSA with radiolabelled cA4; format: binding, Marinitoga piezophila; details: pH 7.5, 2 mM MgCl2, 25 °C; Crn2 ring nuclease site (CARF site also present); labelled compound; read-out: apparent KD
T1 construct: full length, 563 aa natural fusion; synthetic gene codon-optimised, expressed in E. coli C43 (DE3); N-terminal His tag removed by TEV; V177L in the cloned gene; dimer

[2] = target: T1, Csx1-Crn2; test: EMSA with radiolabelled cA4; format: binding, Marinitoga piezophila; details: pH 7.5, 2 mM MgCl2, 25 °C; Crn2 ring nuclease site (CARF site also present); labelled compound; no obvious gel shift, value judged from cA4 cleavage at high protein concentration; discussion gives > 1; read-out: apparent KD

## Nc1ncnc2c1ncn2[C@@H]1O[C@@H]2COP(=O)(O)O[C@H]3[C@@H](O)[C@H](n4cnc5c(N)ncnc54)O[C@@H]3COP(=O)(O)O[C@H]3[C@@H](O)[C@H](n4cnc5c(N)ncnc54)O[C@@H]3COP(=O)(O)O[C@H]3[C@@H](O)[C@H](n4cnc5c(N)ncnc54)O[C@@H]3COP(=O)(O)O[C@H]2[C@H]1O [cA4]
[1]
  Kd: ~20 nM
[2]
  Kd: ~1000 nM
